Laboratory results: patent US9200020B2, “6-oxopurine phosphoribosyltransferase inhibitors” (THE UNIVERSITY OF QUEENSLAND, priority 2012, dated 2015)
Read-outs that look alike come from different tables or passages of the source.

Legend:
human HGPRT = human HGPRT (Homo sapiens (Human), UniProt P00492); assay: Ki determination, spectrophotometric assay, human HGPRT; format: biochemical; details: Ki(app), 25° C., pH 7.4, guanine 60 μM
PfHGXPRT = PfHGXPRT (Plasmodium falciparum (isolate FCR-3 / Gambia), UniProt P20035); assay: biochemical; format: biochemical
PvHGPRT = PvHGPRT (Plasmodium vivax, UniProt A5K7E9); assay: biochemical; details: for Ki ratio (proto:phosphonatoethyl): PvHGPRT, decrease in Ki when N-H is replaced by phosphonoethyl
PvHGPRT, sequence (A5K7E9 1-233): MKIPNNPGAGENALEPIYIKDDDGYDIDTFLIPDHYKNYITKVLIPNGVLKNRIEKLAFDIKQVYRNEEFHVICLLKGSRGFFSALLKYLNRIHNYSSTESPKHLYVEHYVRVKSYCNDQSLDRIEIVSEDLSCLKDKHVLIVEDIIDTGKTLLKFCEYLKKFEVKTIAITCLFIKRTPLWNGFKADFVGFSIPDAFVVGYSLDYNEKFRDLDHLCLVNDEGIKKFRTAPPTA

P. falciparum strain W2 = assay: [3H]-hypoxanthine growth inhibition assay, P. falciparum W2; details: Plasmodium falciparum; for IC50: W2, read-out: W2 IC50; for IC90: W2, read-out: W2 IC90
P. falciparum strain D6 = assay: [3H]-hypoxanthine growth inhibition assay, P. falciparum D6; details: Plasmodium falciparum; for IC50: D6, read-out: D6 IC50; for IC90: D6, read-out: D6 IC90
[1] = test system: M. tuberculosis H37Ra (ATCC 25177); assay: Resazurin reduction microplate assay, M. tuberculosis; details: five days at 37° C., resazurin fluorescence
E. coli XGPRT = E. coli XGPRT (Escherichia coli (strain K12), UniProt P0A9M5); assay: Ki values with E. coli XGPRT; details: read-out: Ki (μM) XGPRT
[2] = Ki(app), 25° C., pH 7.4, guanine 60 μM, read-out: Ki Pf
[3] = Ki(app), 25° C., pH 7.4, guanine 60 μM, read-out: Ki Pv

human HGPRT, sequence (P00492 whole entry): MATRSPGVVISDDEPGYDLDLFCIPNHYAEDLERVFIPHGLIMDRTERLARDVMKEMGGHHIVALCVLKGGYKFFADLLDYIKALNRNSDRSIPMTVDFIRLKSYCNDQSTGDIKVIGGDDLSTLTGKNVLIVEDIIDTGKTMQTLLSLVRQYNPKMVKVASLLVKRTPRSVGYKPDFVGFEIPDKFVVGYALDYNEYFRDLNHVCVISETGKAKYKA

Question: With O=c1[nH]cnc2c1ncn2CCN(CCO)CCP(=O)(O)O [Example 24, 9-[(N-(2-Hydroxyethyl)-N-(2-phosphonoethyl))-2-aminoethyl]hypoxanthine] as the compound, how does the Ki (human HGPRT) read?
Answer: 5.5 ± 0.4 µM

Question: What about the Ki (PfHGXPRT; [2]) of the same compound?
Answer: 2.6 ± 0.4 µM

Question: And the Ki (PvHGPRT; [3])?
Answer: 21 ± 3 µM

Question: CCOC(=O)[C@H](Cc1ccccc1)NP(=O)(CCN(CCCC#N)CCn1cnc2c(=O)[nH]cnc21)N[C@@H](Cc1ccccc1)C(=O)OCC [Compound 6] was tested. Which IC50 (P. falciparum strain W2) did it give?
Answer: 5.5 ± 1.6 µM

Question: What about the IC90 (P. falciparum strain W2) of the same compound?
Answer: 16.1 ± 0.1 µM

Question: And the IC50 (P. falciparum strain D6)?
Answer: 4.2 ± 1.4 µM

Question: And the IC90 (P. falciparum strain D6)?
Answer: 10.6 ± 1.8 µM

Question: What does the source list for N#CCN(CCn1cnc2c(=O)[nH]cnc21)CCP(=O)(O)O [Example 18, 9-[(N-(2-Cyanomethyl)-N-(2-phosphonoethyl))-2-aminoethyl]hypoxanthine]?
Answer: Ki (human HGPRT): 35 µM; Ki (PfHGXPRT; [2]): ≥ 250 µM; Ki (PvHGPRT; [3]): 47 ± 5 µM

Question: Which IC50 [1] does the source give for CCOC(=O)[C@H](Cc1ccccc1)NP(=O)(CCN(CCCC#N)CCn1cnc2c(=O)[nH]cnc21)N[C@@H](Cc1ccccc1)C(=O)OCC [drawing 83] here?
Answer: 60 µM

Question: Which “Ki ratio (proto:phosphonatoethyl)” value (PvHGPRT) does the source give for Nc1nc2c(ncn2CCN(CCP(=O)(O)O)CCP(=O)(O)O)c(=O)[nH]1 [Example 11, 9-[(N,N-(Bis-2-phosphonoethyl))-2-aminoethyl]guanine] here?
Answer: 12-fold

Question: O=c1[nH]cnc2c1ncn2CCN(CCP(=O)(O)O)CCP(=O)(O)O [Example 25, 9-[(N,N-(Bis-2-phosphonoethyl))-2-aminoethyl]hypoxanthine] was tested. Which Ki (PfHGXPRT) did it give?
Answer: 0.4 ± 0.1 µM

Question: And the “Ki ratio (proto:phosphonatoethyl)” value (PvHGPRT)?
Answer: >20-fold

Question: Which IC50 (P. falciparum strain D6) does the source give for N#CCCN(CCn1cnc2c(=O)[nH]c(N)nc21)CCP(=O)(O)O [Compound 11] here?
Answer: ~145 µM

Question: How did the Ki (human HGPRT) turn out when O=c1[nH]cnc2c1ncn2CCOCCP(=O)(O)O [PEEHx, 2-(phosphonoethoxy)ethyl hypoxanthine, reference compound] was run?
Answer: 3.6 ± 0.2 µM

Question: What about the Ki (PfHGXPRT; [2]) of the same compound?
Answer: 0.3 ± 0.04 µM

Question: For N#CCCN(CCn1cnc2c(=O)[nH]cnc21)CCP(=O)(O)O [Compound 12], which IC50 (P. falciparum strain W2) is on record?
Answer: 10.4 ± 2 µM

Question: What about the IC90 (P. falciparum strain W2) of the same compound?
Answer: 21.2 ± 1 µM

Question: And the IC50 (P. falciparum strain D6)?
Answer: 6.4 ± 0.9 µM

Question: And the IC90 (P. falciparum strain D6)?
Answer: 10.2 ± 1.6 µM

Question: Which IC50 (P. falciparum strain W2) does the source give for CCCOC(=O)[C@H](Cc1ccccc1)NP(=O)(CCN(CCC#N)CCn1cnc2c(=O)[nH]cnc21)N[C@@H](Cc1ccccc1)C(=O)OCCC [Compound 14] here?
Answer: 19.3 ± 7.5 µM

Question: And the IC90 (P. falciparum strain W2)?
Answer: 48 ± 13.6 µM

Question: And the IC50 (P. falciparum strain D6)?
Answer: 12.3 ± 1.6 µM

Question: And the IC90 (P. falciparum strain D6)?
Answer: 18.7 ± 1.7 µM

Question: Which Ki (E. coli XGPRT) does the source give for Nc1nc2c(ncn2CCN(CCP(=O)(O)O)CP(=O)(O)O)c(=O)[nH]1 [Compound 2] here?
Answer: 27 µM

Question: Which results are given for CCOC(=O)CN(CCn1cnc2c(=O)[nH]cnc21)CCP(=O)(O)O [Example 15, 9-[(N-(2-Ethoxy-2-oxoethyl)-N-(2-phosphonoethyl))-2-aminoethyl]hypoxanthine]?
Answer: Ki (human HGPRT): 2.6 ± 0.5 µM; Ki (PfHGXPRT; [2]): 1.9 ± 0.4 µM; Ki (PvHGPRT; [3]): 11 ± 1 µM

Question: How did the Ki (human HGPRT) turn out when N#CCCN(CCn1cnc2c(=O)[nH]cnc21)CCP(=O)(O)O [Example 19, 9-[(N-(2-Cyanoethyl)-N-(2-phosphonoethyl))-2-aminoethyl]hypoxanthine] was run?
Answer: 2.4 ± 0.2 µM

Question: And the Ki (PfHGXPRT; [2])?
Answer: 0.2 ± 0.05 µM

Question: What about the Ki (PvHGPRT; [3]) of the same compound?
Answer: 0.7 ± 0.06 µM

Question: Which Ki (E. coli XGPRT) does the source give for Nc1nc2c(ncn2CCN(CCOCP(=O)(O)O)CCP(=O)(O)O)c(=O)[nH]1 [Compound 1] here?
Answer: 0.4 µM

Question: O=C(O)CN(CCn1cnc2c(=O)[nH]cnc21)CCP(=O)(O)O [Example 21, 9-[(N-(Carboxymethyl)-N-(2-phosphonoethyl))-2-aminoethyl]hypoxanthine] was tested. Which Ki (PfHGXPRT) did it give?
Answer: 0.6 ± 0.06 µM

Question: Which Ki (PfHGXPRT) does the source give for O=C(O)CCCN(CCn1cnc2c(=O)[nH]cnc21)CCP(=O)(O)O [Example 23, 9-[(N-(Carboxypropyl)-N-(2-phosphonoethyl))-2-aminoethyl]hypoxanthine] here?
Answer: ≥ 210 µM

Question: What does the source list for O=C(O)CCN(CCn1cnc2c(=O)[nH]cnc21)CCP(=O)(O)O [Example 22, 9-[(N-(2-Carboxyethyl)-N-(2-phosphonoethyl))-2-aminoethyl]hypoxanthine]?
Answer: Ki (human HGPRT): ≥ 240 µM; Ki (PfHGXPRT; [2]): 0.4 ± 0.03 µM; Ki (PvHGPRT; [3]): 41 ± 5 µM

Question: How did the IC50 (P. falciparum strain D6) turn out when CCCOC(=O)[C@H](Cc1ccccc1)NP(=O)(CCN(CCC#N)CCn1cnc2c(=O)[nH]c(N)nc21)N[C@@H](Cc1ccccc1)C(=O)OCCC [Compound 13] was run?
Answer: 75 µM

Question: What about the IC90 (P. falciparum strain D6) of the same compound?
Answer: 215 µM

Question: For Nc1nc2c(ncn2CCNCCP(=O)(O)O)c(=O)[nH]1 [Example 12, 9-[(N-(2-Phosphonoethyl))-2-aminoethyl]guanine], which Ki (human HGPRT) is on record?
Answer: 3 ± 0.6 µM

Question: And the Ki (PfHGXPRT; [2])?
Answer: 16 ± 1 µM

Question: And the Ki (PvHGPRT; [3])?
Answer: 11 ± 0.6 µM

Question: With CCOC(=O)[C@H](Cc1ccccc1)NP(=O)(CCN(CCC(=O)OC)CCn1cnc2c(=O)[nH]c(N)nc21)N[C@@H](Cc1ccccc1)C(=O)OCC [Compound 10] as the compound, how does the IC50 (P. falciparum strain W2) read?
Answer: 5.6 ± 1.8 µM

Question: What about the IC90 (P. falciparum strain W2) of the same compound?
Answer: 37.5 ± 3.5 µM

Question: And the IC50 (P. falciparum strain D6)?
Answer: 11.8 ± 1.6 µM

Question: What about the IC90 (P. falciparum strain D6) of the same compound?
Answer: 30 ± 2.9 µM

Question: With COC(=O)CCN(CCn1cnc2c(=O)[nH]cnc21)CCP(=O)(O)O [Example 16, 9-[(N-(3-Methoxy-3-oxopropyl)-N-(2-phosphonoethyl))-2-aminoethyl]hypoxanthine] as the compound, how does the Ki (human HGPRT) read?
Answer: ≥ 200 µM

Question: And the Ki (PfHGXPRT; [2])?
Answer: 0.1 ± 0.03 µM

Question: And the Ki (PvHGPRT; [3])?
Answer: 21 ± 2 µM

Question: Which results are given for COC(=O)CCCN(CCn1cnc2c(=O)[nH]cnc21)CCP(=O)(O)O [Example 17, 9-[(N-(4-Methoxy-4-oxobutyl)-N-(2-phosphonoethyl))-2-aminoethyl] hypoxanthine]?
Answer: Ki (human HGPRT): 22 ± 3 µM; Ki (PfHGXPRT; [2]): ≥ 220 µM; Ki (PvHGPRT; [3]): ≥ 250 µM

Question: Which Ki (human HGPRT) does the source give for CC(C#N)CN(CCn1cnc2c(=O)[nH]cnc21)CCP(=O)(O)O (stereo not shown) [Example 20, 9-[(N-(2-Cyanopropyl)-N-(2-phosphonoethyl))-2-aminoethyl]hypoxanthine] here?
Answer: 29 ± 2 µM

Question: And the Ki (PfHGXPRT; [2])?
Answer: 6 ± 0.06 µM

Question: What about the Ki (PvHGPRT; [3]) of the same compound?
Answer: ≥ 230 µM

Question: With O=c1[nH]cnc2c1ncn2CCNCCP(=O)(O)O [Example 26, 9-[(N-(2-Phosphonoethyl))-2-aminoethyl]hypoxanthine] as the compound, how does the Ki (human HGPRT) read?
Answer: 40 ± 2 µM

Question: And the Ki (PfHGXPRT)?
Answer: ≥ 200 µM

Question: And the Ki (PvHGPRT; [3])?
Answer: ≥ 250 µM

Question: COC(=O)CCCN(CCn1cnc2c(=O)[nH]c(N)nc21)CCP(=O)(O)O [Example 3, 9-[(N-(4-Methoxy-4-oxobutyl)-N-(2-phosphonoethyl))-2-aminoethyl]guanine] was tested. Which Ki (PvHGPRT; Ki Pv) did it give?
Answer: ≥ 200 µM

Question: What does the source list for Nc1nc2c(ncn2CCOCCP(=O)(O)O)c(=O)[nH]1 [PEEG, 2-(Phosphonoethoxy)ethyl guanine, reference compound]?
Answer: Ki (human HGPRT): 1 ± 0.5 µM; Ki (PfHGXPRT; [2]): 0.1 ± 0.02 µM

Question: Which results are given for COC(=O)CCN(CCn1cnc2c(=O)[nH]c(N)nc21)CCP(=O)(O)O [Compound 8]?
Answer: IC50 (P. falciparum strain W2): 2.9 ± 1.1 µM; IC90 (P. falciparum strain W2): 15.9 ± 4.5 µM; IC50 (P. falciparum strain D6): 3.5 ± 1 µM; IC90 (P. falciparum strain D6): 8.6 ± 1.4 µM

Question: N#CCCCN(CCn1cnc2c(=O)[nH]c(N)nc21)CCP(=O)(O)O [Compound 4] was tested. Which IC50 (P. falciparum strain W2) did it give?
Answer: 5.7 ± 3.9 µM

Question: What about the IC90 (P. falciparum strain W2) of the same compound?
Answer: 32.5 ± 3.5 µM

Question: What about the IC50 (P. falciparum strain D6) of the same compound?
Answer: 8.6 ± 1.5 µM

Question: And the IC90 (P. falciparum strain D6)?
Answer: 24.5 ± 3.5 µM
